Laboratory results: article PMC5090206, “Fluselenamyl: A Novel Benzoselenazole Derivative for PET Detection of Amyloid Plaques (Aβ) in Alzheimer’s Disease” (Scientific Reports, 2016)
pKd, pKi: −log10 of the molar value. Where two headings read alike, the source gives them in different places.

Tests used:
[1] = tested on: AD homogenates; test: Competition of unlabeled ligands against [18F]-9 binding on AD homogenates; design: species or system human; conditions: for displacement of [18F]-9 specific binding: AD homogenates, unlabeled competitor
Protocol: Literature precedents indicate the presence of at least three different binding sites, characterized as BS1, BS2 and BS3 on the Aβ fibrils in vitro[24] and extracts from AD homogenates. […] Further, to evaluate ability of [^18F]-9 for labeling Aβ in autopsy confirmed human brain sections, autoradiography and immunohistochemical correlations were also performed.

[2] = molecular target: AD homogenates; conditions: read-out: binding affinity with AD homogenates; cited from earlier work
[3] = normal mice, cited from earlier work
[4] = comparison values, no reference given; cited from earlier work
[5] = molecular target: Aβ plaques (Homo sapiens, UniProt P05067); test: Histological staining of human AD brain tissue sections; conditions: AD frontal lobe sections
Protocol: To further assess ability of the 5 to label Aβ plaques in human brain, staining experiments were also performed with postmortem tissues from clinically-characterized AD patients[35][36] As a positive control, a highly specific anti-Aβ antibody (10D5, Eli Lilly, Indianapolis, IN) was used to ascertain the presence of Aβ plaques (Fig. 4A), using well-established procedures for assessment of Aβ plaques in postmortem brain[37]. […] Noticeably, 5 also indicated proficient and distinct labeling of plaque and leptomeningeal vessels (cerebral amyloid angiopathy; CAA) (Fig. 4B). […] This high specificity of 5 for Aβ could be attributed to presence of a benzoselenazole ring within Fluselenamyl. Overall, the ability and sensitivity of 5 to detect diffuse plaques and specificity for AD could represent an important advancement to enable PET imaging of mildly demented individuals, prior to onset of symptoms.
Scientific Reports Version of August 4, 2016
µm) were cut in the coronal plane on a freezing sliding microtome and stored at -20°C. 7,8 Tissue was stained as free-floating sections. Prior to staining, tissue sections were permeabilized with PBS-Tritron-X-100 (0.25%) for 30 minutes, and then blocked with 1% non-fat dry milk in PBS-Ttiton-X-100 for 60 minutes.
Hippocampus tissue sections of APP+/-/PS1+/- and age-matched control BL/6 (WT, SI Figure 3) were incubated with fluorescent molecule 5 (100 nM dissolved in 1% ethanol in PBS) for 60 minutes, and washed 3-times with PBS-Triton-X-100.9 Thereafter, tissue sections were incubated with mouse-anti-Aβ (mHJ3.4) 7 that was directly conjugated to Alexa 568 for 90 minutes and washed 3-times with PBS-Triton-X-100.
Tissue sections were mounted onto SuperFrost Plus slides, dried overnight at room temperature, and then sealed with Fluoromount G (Southern Biotech, Birmingham, AL). […]
other neurodegenerative diseases (SI, Figure 4A & 4B). Sections were visualized, processed, and analyzed using a Pascal confocal microscope. […]

Aβ plaques, sequence (P05067 672-711 limits assumed): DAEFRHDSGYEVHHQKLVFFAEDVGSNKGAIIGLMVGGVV

O=C(O)c1cc(/N=N/c2ccc(-c3ccc(/N=N/c4ccc(O)c(C(=O)O)c4)cc3)cc2)ccc1O [Chrysamine G]
displacement of [18F]-9 specific binding [1]: no displacement

CN(C)c1ccc(-c2cn3cc(I)ccc3n2)cc1 [IMPY]
displacement of [18F]-9 specific binding [1]: significant displacement | pKi ([1]; competition against [18F]-9 on AD homogenates): 8.20

[11CH3]Nc1ccc(-c2nc3ccc(O)cc3s2)cc1 [PiB]
displacement of [18F]-9 specific binding [1]: significant displacement

CNc1ccc(/C=C/c2ccc(OCCOCCOCCF)nc2)cc1 [[^18F]-AV-45]
pKd [2]: 8.43

CNc1ccc(/C=C/c2ccc(OCCOCCOCC[18F])nc2)cc1 [[^18F]-AV-45]
%ID/g (brain) ([3]; 2 min): 7.33 ± 1.54 %ID/g | %ID/g (brain) ([3]; 2 h): 1.80 ± 0.07 %ID/g | brain uptake ratio 2 min/2 h [3]: 4.07 | log P [4]: 2.4

CNc1ccc(/C=C/c2ccc(OCCOCCOCCF)cc2)cc1 [[^18F]-Florbetaben]
pKd [2]: 7.80 | %ID/g (brain) ([3]; 2 min): 4.77 %ID/g | %ID/g (brain) ([3]; 4 h): 0.95 %ID/g | brain uptake ratio 2 min/4 h [3]: 5.02 | log P [4]: 3.22

CNc1ccc(-c2nc3ccc(O)cc3s2)cc1F [[^18F]-Flutemetamol]
pKd [2]: 8.17

Nc1ccc(C=Cc2ccc(OCCOCCOCC[18F])nc2)cc1 [desmethylated]
brain uptake of metabolites of [18F]-AV-45 ([3]; at 2 min): 4.5 % ID/g

thioflavin S [reference compound]
staining of diffuse plaques [5]: only weak staining of diffuse plaques
